Reference: patent US4188485A, “1-[(10,11-Dihydro-5H-dibenzo[a,d]-cyclohepten-5-yl)methyl]-4-substituted piperidines and related compounds” (G. D. Searle & Co., priority 1978, dated 1980)

What was measured:
dopamine receptors [1] = assay: Receptor Binding Assay, displacement of ^3 H-dopamine binding to calf caudate membranes; conditions: for IC50: read-out: ^3 H-Dopamine (IC50), calf caudate membrane homogenate, 37° C., 10 minutes, non-specific binding with 10^-5 M (+)-Butaclamol
dopamine receptors [2] = assay: Receptor Binding Assay, displacement of ^3 H-Spiroperidol binding to calf caudate membranes; conditions: read-out: ^3 H-Spiroperidol (IC50); 0.15 nM ^3 H-Spiroperidol, calf caudate membrane homogenate, 37° C., 20 minutes; non-specific binding with 10^-5 M (+)-Butaclamol
dopamine receptors [3] = assay: biochemical; assay type: binding; conditions: ^3 H-Haloperidol and ^3 H-Spiroperidol versus ^3 H-dopamine sites; compared with clozapine and chloropromazine
dopamine receptors [4] = biological target: dopamine receptors (Bos taurus, UniProt P20288); assay: biochemical; assay type: binding; conditions: 1.6 nM ^3 H-haloperidol, calf caudate membrane homogenate, 37° C., 10 minutes; non-specific binding with 10^-4 M dopamine
dopamine receptors (Bos taurus, UniProt P20288), sequence (P20288 whole entry): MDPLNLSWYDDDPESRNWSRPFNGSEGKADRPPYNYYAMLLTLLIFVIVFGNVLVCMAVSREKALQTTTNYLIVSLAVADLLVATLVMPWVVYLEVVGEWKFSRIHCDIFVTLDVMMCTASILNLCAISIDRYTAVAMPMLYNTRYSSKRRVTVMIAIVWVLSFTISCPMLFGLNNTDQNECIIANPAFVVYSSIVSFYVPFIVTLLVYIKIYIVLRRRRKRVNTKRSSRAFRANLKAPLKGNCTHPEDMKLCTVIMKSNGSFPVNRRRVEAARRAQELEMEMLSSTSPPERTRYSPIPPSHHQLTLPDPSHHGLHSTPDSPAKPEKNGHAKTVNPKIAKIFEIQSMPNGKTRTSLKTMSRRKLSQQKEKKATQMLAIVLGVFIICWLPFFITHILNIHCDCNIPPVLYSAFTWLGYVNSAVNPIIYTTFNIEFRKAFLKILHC

SMILES	IC50 (dopamine receptors [1])	IC50 (dopamine receptors [2])	antagonist ratios (dopamine receptors [3])	IC50 (dopamine receptors [4])	^3 H-Dopamine, % at 10^-4 (dopamine receptors [1]; at 10^-4, calf caudate membrane homogenate, 37° C., 10 minutes, 100 µM)
CC(C)(C)C1(O)CCN(CC2c3ccccc3CCc3ccccc32)CC1 [Compound A]	15000 nM	860 nM	comparable to clozapine and chloropromazine	2.4 nM	–
CC(C)(C)C1(O)CCN(CC2c3ccccc3CCc3cc(Cl)ccc32)CC1 (stereo not shown) [Compound B]	880 nM	270 nM	comparable to clozapine and chloropromazine	7.5 nM	–
CC(C)(C)C1(O)CCN(CC2c3ccccc3CCc3ccc(Br)cc32)CC1.Cl (stereo not shown) [Compound C, 4-tert-butyl-1-[(3-bromo-10,11-dihydro-5H-dibenzo[a,d]cyclohepten-5-yl)methyl]-4-piperidinol hydrochloride]	1700 nM	220 nM	comparable to clozapine and chloropromazine	280 nM	–
CC(C)(C)C1(O)CCN(CC2c3ccccc3C=Cc3ccccc32)CC1.Cl [Compound D, 4-tert-butyl-1-[(5H-dibenzo[a,d]cyclohepten-5yl)methyl]-4-piperidinol, hydrochloride]	7200 nM	1500 nM	comparable to clozapine and chloropromazine	37 nM	–
Cl.Cl.NC1CCN(CC2c3ccccc3CCc3ccccc32)CC1 [Compound E, 1-[(10,11-dihydro-5H-dibenzo[a,d]cyclohepten-5-yl)methyl]-4-piperidinamine, dihydrochloride]	–	30000 nM	comparable to clozapine and chloropromazine	2500 nM	27%
CC(C)(C)C1(O)CCN(CC2c3ccccc3Oc3ccccc32)CC1.Cl [Compound F, 4-tert-butyl-1-(xanthen-9-ylmethyl)-4-piperidinol, hydrochloride]	15000 nM	5900 nM	comparable to clozapine and chloropromazine	310 nM	–
CC(C)(C)C1(O)CCN(CC2c3ccccc3Sc3ccccc32)CC1.Cl [Compound G, 4-tert-butyl-1-(thioxanthen-9-ylmethyl)-4-piperidinol, hydrochloride]	4500 nM	910 nM	comparable to clozapine and chloropromazine	290 nM	–
CC(C)(C)C1(O)CCN(CC(c2ccccc2)c2ccccc2)CC1 [Compound H, 4-tert-butyl-1-(2,2-diphenylethyl)-4-piperidinol]	60000 nM	3600 nM	comparable to clozapine and chloropromazine	160 nM	–
O=C1CCN(CC(c2ccccc2)c2ccccc2)CC1C1(O)CCN(CC(c2ccccc2)c2ccccc2)CC1 (stereo not shown) [Compound I, 1-(2,2-diphenylethyl)-3-[1-(2,2-diphenylethyl)-4-hydroxypiperidin-4-yl]-4-piperidinone]	27000 nM	–	comparable to clozapine and chloropromazine	500 nM	–
OC1CCN(CC(c2ccccc2)c2ccccc2)CC1C1(O)CCN(CC(c2ccccc2)c2ccccc2)CC1 (stereo not shown) [Compound J, 1-(2,2-diphenylethyl)-3-[1-(2,2-phenylethyl)-4-hydroxypiperidin-4-yl]-4-piperidinol]	25000 nM	–	comparable to clozapine and chloropromazine	90 nM	–
O=C1CCN(CC(c2ccc(Cl)cc2)c2ccc(Cl)cc2)CC1C1(O)CCN(CC(c2ccc(Cl)cc2)c2ccc(Cl)cc2)CC1 (stereo not shown) [Compound K, 1-[2,2-bis(p-chlorophenyl)ethyl]-3-{1-[2,2-bis(p-chlorophenyl)ethyl]-4-hydroxypiperidin-4-yl}-4-piperidinone]	–	–	comparable to clozapine and chloropromazine	10000 nM	–
